Data on 89 molecules can be found in a melting point compilation (Tetko et al.; mined from patent text by program, amines drawn as free bases though some values may be those of a salt).

Molecules are shown by their SMILES. Residues, ends and D or L forms follow the SMILES beside them. *: point of attachment. Cbz = O=C(OCc1ccccc1)*

Broadly, the melting point is the temperature, or range, at which the solid turns liquid.

For the molecule `FC(F)(F)CSc1nc(-c2ccccc2)c(-c2ccccc2)[nH]1`, the melting point was in the range of 186 to 187 °C.

Molecule `CCOC(=O)CCCCOc1ccc(C(=N)NC(=O)OCc2ccccc2)cc1` displayed a melting point of 88 to 90 °C.

As to `COC(=O)c1ccc2c(=O)[nH]c(=O)n(CCCCN3CCC(OC(c4ccccc4)c4ccccc4)CC3)c2c1`, the melting point lay within 192 to 194 °C.

In the case of `CC1(C)Oc2ccncc2C2OC21` (centres undefined), the melting point was in the range of 208 to 210 °C.

`COc1cccc(C(O)CCN2CC=C(c3ccc(Cl)cc3)CC2)c1` (centres undefined) registered a melting point of 100 to 102 °C.

On to `Cc1cc(-c2cccc(-c3ccc(CCCNC4CCc5ccccc5C4)cc3)n2)c(C)[nH]1` (centres undefined), for which the melting point lay in the range of 120 to 130 °C.

In turn, `C#CC[C@H](c1nc2cc(Cl)ccc2c(=O)n1Nc1ccccc1)N(CCCN)C(=O)c1cc(F)cc(F)c1` returned a melting point of 165 to 167 °C.

In turn, `COC(=O)c1ccccc1CN1CCN(c2nc(C)c(C(=O)NCc3ccccc3)s2)C1=O` showed a melting point of 130 to 133 °C.

`Cc1c(-c2ccccc2)oc2c(C(=O)NCCCN3CCN(c4ccccc4O)CC3)cccc2c1=O` gave a melting point of 118 to 120 °C.

Molecule `CC(=Cc1ccc(O)c(Cl)c1)[N+](=O)[O-]` showed a melting point of 91 to 93 °C.

Consider `CC(c1ccc(Br)cc1)N1CCC(NC(=O)CCc2nc(-c3ccccn3)no2)CC1` (centres undefined), for which the melting point was in the range of 142 to 143 °C.

With `C#Cc1cc(C)c(C2=C(O)C3(CCN(OC)CC3)N(C)C2=O)c(C)c1`, the melting point was 258 to 260 °C.

Consider `O=C(Nc1c(F)cccc1F)c1ccc(-n2nc(C(F)(F)F)cc2C2CC2)c(F)c1`, for which the melting point is 168 to 170 °C.

In turn, `COC(=O)C(CCSC)NC(=O)c1ccc(CS(=O)(=O)c2cccnc2)cc1-c1ccccc1` (centres undefined) showed a melting point of 152 to 154 °C.

Molecule `COc1cc(S(C)=O)ccc1-c1ccc(C#N)c(=O)[nH]1` (centres undefined) came in with a melting point of 239 to 241 °C.

`CC1CC2=CC(=O)CCC2=C2CCC3(C)C(=O)CCC3C21` (centres undefined) yielded a melting point of 204 to 205 °C.

The molecule `Cc1ccc(C(C#N)C=Cc2ccc(O)c(O)c2)cc1` (centres undefined) displayed a melting point of 172 °C.

`CC(C)c1cccc(C(C)C)c1NC(=O)NCC1(O)CCCc2ccccc21` (centres undefined) showed a melting point of 170 to 171 °C.

Consider `COc1cccnc1C(c1cc(F)ccc1F)S(=O)(=O)c1ccc(Cl)cc1` (centres undefined), for which the melting point is 184 to 185 °C.

As to `CCOC(=N)c1ccc(-c2nc3c(s2)NCCCC3)cc1`, the melting point lay within 141 to 143 °C.

In turn, `Cc1ccccc1Oc1nc(Cl)cc(Cl)n1` registered a melting point of 78 to 79 °C.

`C=CCOc1cc2c(cc1CC=C)CCC(=O)N2` gave a melting point of 137 to 139 °C.

The molecule `COc1cc(-c2ccccc2)c(C=O)cc1CC(=O)O` had a melting point of 174 to 175 °C.

The molecule `CCC[C@](CC=O)(CCc1ccccc1)OCOc1ccc(-c2ccccc2)cc1` displayed a melting point of 47 to 48.5 °C.

For the molecule `CCCCCCCCCCCC[C@]1(C)OO[C@@H]2C[C@H]1CC(=O)[C@@H]2C`, the melting point was 35 °C.

The molecule `CN(C)C=CC(=O)c1cc(Cl)cc(Cl)c1` registered a melting point of 100 °C.

`CCOC(=O)C(C)Oc1ccc(-c2nc(-c3ccc(C)cc3C)nc(-c3ccc(C)cc3C)n2)c(O)c1` (centres undefined) displayed a melting point of 120 to 122 °C.

Turning to `CC(C)(C)[Si](C)(C)N1C(=O)C(C(Cc2ccccc2)OC=O)C1SC(c1ccccc1)(c1ccccc1)c1ccccc1` (centres undefined), the melting point was 172 to 173 °C.

The molecule `COc1cccc(-c2nn(C(C)c3oc4ccccc4c(=O)c3-c3ccccc3)c3ncnc(N)c23)c1` (centres undefined) returned a melting point of 176 to 178 °C.

Molecule `Clc1nc2cc(Cl)c(Cl)cc2[nH]1` registered a melting point of 212 to 214 °C.

In the case of `NC(=O)c1cc(Cl)c(Cl)c(Cl)n1`, the melting point is 169 to 170 °C.

The molecule `N#Cc1ccc(C=Nc2c3c(nc4ccccc24)CCCC3)cc1` showed a melting point of 204 to 205 °C.

`O=c1[nH]c2cccc(C3CCCNC3)c2[nH]1` (centres undefined) yielded a melting point of 260 °C.

For the molecule `COCc1c(C(=O)c2ccccc2)ncc2[nH]c3ccc(OCc4ccccc4)cc3c12`, the melting point is 165 °C.

`CN1CCOc2cc(S(=O)(=O)n3c(COC(C)(C)C(=O)O)cc4nc(Cl)ccc43)ccc21` came in with a melting point of 229 °C.

`O=C(N[C@H](Cc1ccc(C(F)(F)F)cc1)[C@@H](O)c1ccc(F)cc1)c1cccc2cc3ccccc3cc12` (racemic) showed a melting point of 227 to 228 °C.

As for `O=[N+]([O-])c1cc(Cl)c(Cl)cc1O`, the melting point lay in the range of 63 to 65 °C.

On to `COc1ncc(S(C)(=O)=O)cc1Br`, for which the melting point lay within 148 to 150 °C.

In turn, `Cn1nc(-c2cnc(N)nc2-c2cccc(F)c2)ccc1=O` gave a melting point of 212 °C.

Consider `O=C(CNS(=O)(=O)c1ccc(Nc2nccc(Nc3ccc(F)cc3)n2)cc1)NC1CCOCC1`, for which the melting point fell in the range of 253 to 254 °C.

As for `OC1(C(F)(F)F)ON=C(c2ccc(Cl)cc2)C1Cl` (centres undefined), the melting point is 126 to 127 °C.

In the case of `COc1ccc(C(=O)Nc2ccc(Cl)c(Cl)c2)cc1NCc1cccs1`, the melting point was 178 to 180 °C.

In turn, `CC(C)(C)c1ccc(C(O)(c2ccccc2)c2ncc[nH]2)cc1` (centres undefined) displayed a melting point of 166 °C.

As for `CNS(=O)(=O)c1ccccc1C`, the melting point lay within 62 to 64 °C.

The molecule `O=C(NCl)c1cccc(C(=O)NCl)c1` showed a melting point of 73.5 to 75 °C.

For the molecule `O=C(O)c1cc2cc(OC(F)F)ccc2nc1C(=O)O`, the melting point amounted to 226 °C.

Turning to `Cc1csc(-c2ncccc2C(=O)c2ccccn2)c1`, the melting point was in the range of 122 to 123 °C.

In turn, `Cc1ccc(-c2cncn2-c2ccc(S(C)(=O)=O)cc2)cc1F` came in with a melting point of 147 °C.

On to `CCOP(=O)(OCC)c1c(C)c2c(c(C)c1-c1c(OC)ccc3ccccc13)CN(S(=O)(=O)c1ccc(C)cc1)C2`, for which the melting point was in the range of 58 to 60 °C.

The molecule `O=C(NCc1ccc(Cl)cc1)c1cn(CCCOC2CCCCO2)c2c(F)cc(CO)cc2c1=O` (centres undefined) came in with a melting point of 148 to 150 °C.

`CCOC(=O)NC(=O)c1nc(Cl)c(Cl)[nH]1` returned a melting point of 208 °C.

Molecule `O=C1c2ccc(OCCCO)cc2C(=O)c2ccc(OCCCO)cc21` registered a melting point of 190 °C.

Regarding `Nc1ccc(Oc2cc3ccccc3cc2Oc2ccc(N)c(O)c2)cc1O`, the melting point was 196 to 197 °C.

As for `O=Cc1ccccc1-n1nnnc1CC(=O)C(F)(F)F`, the melting point stood at 128 °C.

The molecule `CN(C(=O)c1ccc2nonc2c1)C1CCSCC1` yielded a melting point of 155 to 156 °C.

In turn, `COc1cccc(Cc2cnc(-c3ccccc3)c(-c3ccccc3)n2)c1` had a melting point of 65 to 66 °C.

Molecule `CCOC(=O)C(C)Oc1ccc2cc(Oc3c(Cl)cc(C(F)(F)F)cc3Cl)ccc2c1` (centres undefined) had a melting point of 118 to 120 °C.

For the molecule `O=Cc1ccc(N(c2ccccc2)c2ccc3c4c(cccc24)CC3)cc1`, the melting point was in the range of 138 to 141 °C.

As for `O=C1NC(=O)C(N(Cc2ccc(Br)cc2)c2ccc(CCNCC(O)COc3ccccc3)cc2)S1` (centres undefined), the melting point fell in the range of 52 to 54 °C.

In turn, `CON(C)C(=O)Cc1ccc([N+](=O)[O-])cc1` showed a melting point of 75 to 75.5 °C.

The molecule `CN(C)CCOC(=O)CCc1c(C(=O)OCCN(C)C)[nH]c2cc(Cl)cc(Cl)c12` yielded a melting point of 95 to 97 °C.

`COC(=O)CS(=O)CCCCN(c1cnc(-c2ccccc2)c(-c2ccccc2)n1)C(C)C` (centres undefined): the melting point was 128 to 130 °C.

`CNC(=S)C1(c2cccnc2)CCCS1=O` (centres undefined) returned a melting point of 204 °C.

For the molecule `C[C@@H]1CN(c2c(C=O)cc(Br)c(F)c2F)C[C@H](C)O1`, the melting point lay within 88.1 to 92 °C.

Turning to `COC(=O)c1cccc(/C=C/C(=O)Nc2ccccc2NC(=O)OC(C)(C)C)c1`, the melting point fell in the range of 79 to 82.4 °C.

The molecule `CCN(CC)C(=O)C1CCC2C3CC=C4N(C)C(=O)CCC4(C)C3CCC12C` (centres undefined) yielded a melting point of 115 to 118 °C.

In the case of `CCCCCCCCCCCCCCCC(=O)C1=C(O)COC1=O`, the melting point lay within 81 to 83 °C.

Molecule `CP(C)(=O)CN1CCN(c2n[nH]c3ccccc23)CC1` displayed a melting point of 223 to 225 °C.

Take `O=C1NC(CC(=O)C2CC2)c2cccn2-c2sccc21` (centres undefined): the melting point was found to be 200 °C.

Take `CC1CCN(C2=Nc3cc(Br)ccc3N3CCc4cccc2c43)CC1`: the melting point fell in the range of 177 to 179 °C.

`C#Cc1ccc(-c2c(C)n[nH]c(=O)c2-c2c(F)cc(F)cc2F)cc1`: the melting point was 252 to 254 °C.

`NCC1CCc2[nH]c3ccc(F)c(Cl)c3c2C1` (centres undefined) displayed a melting point of 179 to 180 °C.

As for `Cc1ccc(-c2nc3ccccc3s2)nc1`, the melting point came out at 170 °C.

Take `Cc1ccc(C(=O)OC(C)c2nc3c(c(=O)n(C)c(=O)n3C)n2C)c(C)n1` (centres undefined): the melting point came out at 160 °C.

Molecule `COC(=O)CCCCc1ccc(O)c(CCC(=O)OC)n1` displayed a melting point of 92 to 95 °C.

Turning to `CCOc1ccc(N=Cc2cc(OC)c(OC)c(OC)c2)cc1`, the melting point was 75 to 77 °C.

As to `CCCCCCCCCCCCn1nnc(CCC(=O)Nc2c(OC)cc(OC)cc2OC)n1`, the melting point was 86 to 88 °C.

For `COc1cc2c(c(OC)c1OC)-c1ccc(NC(=O)C(C)NC(=O)OCc3ccccc3)cc1C(NC(C)=O)CC2` (centres undefined), the melting point was in the range of 140 to 141 °C.

The molecule `CCC(C)(C)c1ccc2oc(-c3ccc(O)cc3)nc2c1` yielded a melting point of 236 to 237 °C.

For `COc1ccc(CSc2nnc(-c3ccc4occc4c3)o2)cc1C(F)(F)F`, the melting point fell in the range of 135 to 136 °C.

With `O=C(O)Cc1cccc(OCCCc2cn(-c3ccc(C(F)(F)F)cn3)nc2-c2ccccc2)c1`, the melting point lay within 132 to 133 °C.

As to `O=C1NC2(CCCCC2)Sc2ccccc21`, the melting point lay in the range of 193 to 195 °C.

The molecule `CNc1nc2c(OCc3ccccc3)cccc2n1C` returned a melting point of 213 °C.

Molecule `Nc1ccc(Oc2ccccc2)cc1SC(c1ccc2c(c1)OCO2)C(O)C(=O)O` (centres undefined) registered a melting point of 158 to 159 °C.

On to `COC(=O)COc1ccc(C(=O)CN)cc1`, for which the melting point is 135 to 136 °C.

For `N=C(N)NCCCC(NC(=O)C1CCCN1C(=O)OCc1ccccc1)C(=O)O` (stereo not drawn) (Cbz-Pro-Arg-OH; configuration not given here), the melting point is 137 to 140 °C.

For the molecule `Nc1ccc2c(c1N)Cc1ccccc1-2`, the melting point was 240 to 243 °C.

The molecule `CCCc1ccc(C(=O)Nc2ccc3sc(C)nc3c2Cl)cc1` came in with a melting point of 184 °C.

Turning to `Cc1cccc([N+](=O)[O-])c1CO`, the melting point was in the range of 67 to 68 °C.
